Values joined by “and” are separate entries in the source; they are usually repeats but may differ in a detail not shown here. Equal values may be shown once. Read-outs that look alike come from different tables or passages of the source.
Tests used:
[1] = test system: P. falciparum NF54 early stage gametocytes (>90% stage I–III); assay: Gametocytocidal luciferase reporter assay, early stage, 48 h; format: cell-based; settings: Plasmodium falciparum, NF54, 48 h, read-out: Early Stage (EG, Luc 48 h) IC50
Method: (§1) P. falciparum parasites (NF54, K1, and W2) were cultured in vitro in human erythrocytes (A^+ or O^+) under 90% N2, 5% CO2, and 5% O2 atmospheric conditions with supplemented RPMI 1640 media (Sigma Aldrich) containing Albumax II, as previously described (Verlinden et al., [2011]). This study was carried out according the guidelines set out by the Faculty of Health Sciences Ethical Committee, Ethical Clearance no. EC-120821/077. The protocol was approved by the Faculty of Health sciences ethical committee at the University of Pretoria. All subjects gave written informed consent in accordance with the Declaration of Helsinki. Parasite proliferation was monitored microscopically using Giemsa stained smears. Synchronized ring stage parasites (>95%) were obtained using a 5% D-sorbitol (Sigma Aldrich) treatment. […] Gametocyte cultures were kept stationary under 90% N2, 5% CO2, and 5% O2 atmospheric conditions at 37°C and treated with 50 mM N-acetyl-glucosamine (NAG) to eliminate residual invasion of asexual parasites.
(§2) Gametocytocidal activity was determined using the luciferase reporter line (Reader et al., [2015]) to derive dose responses with two-fold serial drug dilutions for 48 h against early stage gametocytes (day 5 post-induction population, >90% stage I–III) and 10-fold serial drug dilutions for 72 h against late stage gametocytes (day 10 post-induction population, >90% late stage IV–V) (2% gametocytemia, 2% hematocrit), at 37°C under 90% N2, 5% CO2, and 5% O2 atmospheric conditions.

[2] = test system: P. falciparum K1; assay: Proliferative (SYBR Green I) assay, asexual parasites, 96 h; format: cell-based; settings: Plasmodium falciparum, ±SEM
Method: as §1
(§3) Working solutions of the derivatives were prepared from a 10 mM stock solution in 100% DMSO in supplemented RPMI 1640 media containing Albumax II with a final DMSO concentration of <0.1%, previously determined as being non-toxic to intraerythrocytic asexual parasites and gametocytes. Dose responses were assayed using a two-fold serial drug dilution on in vitro >95% ring stage intraerythrocytic P. falciparum parasites at 37°C under 90% N2, 5% CO2, and 5% O2 atmospheric conditions, detecting both parasite lactate dehydrogenase (pLDH) activity as a metabolic marker following a 48 h drug exposure (1.5–2% parasitemia and 2% hematocrit; Makler et al., [1993]) and SYBR Green I fluorescence as proliferative marker following a 96 h drug exposure (1% parasitemia and 1% hematocrit). […] Data analysis was performed using GraphPad Prism 7.

[3] = test system: P. falciparum NF54; assay: as above; format: cell-based; settings: Plasmodium falciparum, ±SEM
Method: as §1, §3

[4] = test system: P. falciparum W2; assay: as above; format: cell-based; settings: Plasmodium falciparum, ±SEM
Method: as §1, §3

[5] = test system: P. falciparum NF54 late stage gametocytes (>90% stage IV and V); assay: Gametocytocidal luciferase reporter assay, late stage, 72 h; format: cell-based, Plasmodium falciparum
Method: as §1, §2

[6] = test system: P. falciparum NF54; assay: Metabolic (parasite LDH) assay, asexual ring stage parasites, 48 h; format: cell-based; settings: Plasmodium falciparum, pLDH, CQ-sensitive NF54
Method: as §1, §3

[7] = test system: P. falciparum Dd2; assay: as above; format: cell-based; settings: Plasmodium falciparum, pLDH, Dd2 CQ, pyrimethamine resistant
Method: as §3

[8] = Cytotoxicity, Cytoselect LDH cytotoxicity assay kit; format: cell-based; settings: human, HepG2 cells
Method: (§4) Cytotoxicity (EC50) was determined against Chinese hamster ovarian (CHO) using a 3-(4,5-dimethylthiazol-2-yl)-2,5-diphenyltetrazolium bromide (MTT) assay and hepatocellular carcinoma cells (HepG2) using the Cytoselect LDH cytotoxicity assay kit (Cell Biolabs).

[9] = Cytotoxicity, MTT assay; format: cell-based; settings: Chinese hamster, CHO cells
Method: as §4

[10] = test system: asexual P. falciparum NF54, Dd2, K1, W2; assay: Asexual P. falciparum, metabolic (pLDH) and proliferative (SYBR Green I) platforms; format: cell-based; settings: Plasmodium falciparum; drug-sensitive and -resistant parasites, both assay platforms; read-out: IC50, asexual P. falciparum metabolic activity and proliferation
Method: Data analysis was performed using GraphPad Prism 7.
The in vitro activities of the new derivatives were determined against drug sensitive NF54 and multi-drug resistant Dd2, K1, and W2 intraerythrocytic asexual P. falciparum malaria parasite strains using both a metabolic (parasite LDH) and a proliferative (SYBR Green I fluorescence) assay readout (Table 1).

[11] = test system: P. berghei ANKA GFP-Luc-SMcon sporozoites; assay: P. berghei-luciferase liver stage bioluminescence assay (causal prophylactic mode) in HepG2-CD81 cells; format: cell-based, Plasmodium berghei; settings: for Emax: 48 h, read-out: P.berghei-Luciferase Liver Stage Bioluminescence Assay: Maximum measured (%)
Method: (§5) Briefly, HepG2-CD81 cells were seeded into 1,536 well plates containing 50 nL of test and control compounds diluted into DMSO. […] Next, 2 μL of luciferin reagent (Promega BrightGlo) was added to each well and luciferase activity was detected using a Perkin Elmer Envision plate reader. […] In parallel, plates were processed without sporozoites for HepG2 toxicity measurements.
(§6) In continuation of the transmission blocking theme, it is important to establish activities against liver stage parasites. […] This assay uses ultra-high-throughput screening methods optimized for a 1536-well format and a HepG2 human hepatoma cell line. […] To establish selectivity of the compounds for the parasite in the liver stage of infection, cytotoxicity was determined by measuring bioluminescence from the reaction between free ATP of compound-treated, uninfected hepatocytes and a luciferase reporter system.

[12] = HepG2 cytotoxicity bioluminescence assay (CellTiterGlo, ATP); format: cell-based, human; settings: human, uninfected HepG2-CD81 cells; for IC50 at 72 h: two biological replicates listed in one cell; for EC50 at 72 h: uninfected HepG2, ATP bioluminescence
Method: as §5, §6

[13] = test system: HepG2 cells; assay: as above; format: cell-based, human; settings: two biological replicates listed in one cell
Method: as §5, §6

[14] = >90% stage I–III gametocytes, ±SEM
[15] = Plasmodium falciparum, NF54, 72 h, read-out: Late Stage (LG, Luc 72 h) IC50, >90% stage IV and V gametocytes, ±SEM
[16] = read-out: Late Stage (LG, Luc 72 h) IC50, >90% stage IV and V gametocytes, ±SEM
[17] = Plasmodium berghei, HepG2, 48 h, liver stage, HepG2 host cells, luciferase after 48 h, ±SD, read-out: P. berghei sporozoites IC50
[18] = Plasmodium berghei, two biological replicates listed in one cell
[19] = Plasmodium berghei, two biological replicates listed in one cell, read-out: P.berghei-Luciferase Liver Stage Bioluminescence Assay: IC50
[20] = two biological replicates listed in one cell, read-out: P.berghei-Luciferase Liver Stage Bioluminescence Assay: IC50

Compound	IC50 [1, 14] [nM]	IC50 [2] [nM]	IC50 [3] [nM]	IC50 [4] [nM]	IC50 [5, 15] [nM]	IC50 [6] [nM]	IC50 [7] [nM]	EC50 [8] [nM]	EC50 [9] [nM]	IC50 [10] [nM]	other results
C[C@H]1[C@H](NS(=O)(=O)N2CCN(c3ccccn3)CC2)O[C@@H]2O[C@@]3(C)CC[C@H]4[C@H](C)CC[C@@H]1[C@@]24OO3 [Compound 29]	24.7 ± 4.9	4.9 ± 0.9	4.3 ± 0.4	3.3 ± 0.7	0.04 ± 0.03	1.68 ± 0.18	6.4 ± 1.4	173	> 197000	–	–
CCCCCCCCCCCCCCCCNC(=O)N1CCN([C@@H]2O[C@@H]3O[C@@]4(C)CC[C@H]5[C@H](C)CC[C@@H]([C@H]2C)[C@@]35OO4)CC1 [Compound 21]	–	–	–	–	–	–	–	–	–	50 to 100	–
CCCCCCNC(=O)N1CCN([C@@H]2O[C@@H]3O[C@@]4(C)CC[C@H]5[C@H](C)CC[C@@H]([C@H]2C)[C@@]35OO4)CC1 [Compound 20]	–	–	–	–	–	–	–	–	–	50 to 100	–
CCCCCCCCCCCCCCCCS(=O)(=O)N1CCN([C@@H]2O[C@@H]3O[C@@]4(C)CC[C@H]5[C@H](C)CC[C@@H]([C@H]2C)[C@@]35OO4)CC1 [Compound 14]	–	–	–	–	–	–	–	–	–	50 to 100	–
CCCCCCCCCCCCCCCC(=O)N1CCN([C@@H]2O[C@@H]3O[C@@]4(C)CC[C@H]5[C@H](C)CC[C@@H]([C@H]2C)[C@@]35OO4)CC1 [Compound 26]	–	–	–	–	–	–	–	–	–	50 to 100	–
CC(=O)Nc1ccc(S(=O)(=O)N2CCN([C@@H]3O[C@@H]4O[C@@]5(C)CC[C@H]6[C@H](C)CC[C@@H]([C@H]3C)[C@@]46OO5)CC2)cc1 [Compound 15]	8 ± 2.3	3.4 ± 0.3	2.7 ± 0.7	5.4 ± 0.5	–	1.3 ± 0.5	3.54 ± 0.32	1950	> 177000	–	–
C[C@H]1[C@H](N2CCN(S(=O)(=O)c3ccc(C(F)(F)F)cc3)CC2)O[C@@H]2O[C@@]3(C)CC[C@H]4[C@H](C)CC[C@@H]1[C@@]24OO3 [Compound 18]	89.7 ± 28.8	22 ± 2.7	13.9 ± 1.2	23.8 ± 1.4	4.8 ± 4.2	15.3 ± 2	74.3 ± 6.42	217	154000	15 to 74	–
C[C@H]1[C@H](N2CCN(S(=O)(=O)c3cccc(F)c3)CC2)O[C@@H]2O[C@@]3(C)CC[C@H]4[C@H](C)CC[C@@H]1[C@@]24OO3 [Compound 17]	13.1 ± 7.2	4.85 ± 1.1	3.1 ± 0.2	4.6 ± 0.2	0.4 to 0.7	2 ± 0.6	6.2 ± 0.7	637	> 196000	–	IC50 [5, 16]: 0.6 ± 0.4 nM
C[C@H]1[C@H](NS(=O)(=O)N2CCN(c3ccc(C(F)(F)F)cn3)CC2)O[C@@H]2O[C@@]3(C)CC[C@H]4[C@H](C)CC[C@@H]1[C@@]24OO3 [Compound 30]	19.3 ± 6.2	4.3 ± 1.3	3.3 ± 0.3	3 ± 1	4 ± 3.8	1.8 ± 0.6	9.64 ± 0.6	311	34300	–	–
CO[C@H]1O[C@@H]2O[C@@]3(C)CC[C@H]4[C@H](C)CC[C@@H]([C@H]1C)[C@@]24OO3 [Artemether 3, artemether]	–	–	–	–	–	–	–	–	–	–	IC50 [11, 17]: > 10000 nM; inhibition at 10 µM ([11]; Plasmodium berghei, Conc. 10 μM, read-out: P. berghei sporozoites Maximum inhibition %): 49.4%
CCCCS(=O)(=O)N1CCN([C@@H]2O[C@@H]3O[C@@]4(C)CC[C@H]5[C@H](C)CC[C@@H]([C@H]2C)[C@@]35OO4)CC1 [Compound 13]	21.5 ± 10.4	3.1 ± 0.1	2.7 ± 0.6	4.4 ± 1	0.4 to 0.7	–	–	2720	–	–	IC50 [5, 16]: 0.5 ± 0.3 nM
C[C@H]1[C@H](N2CCN(C(=O)Nc3ccc(C(C)(C)C)cc3)CC2)O[C@@H]2O[C@@]3(C)CC[C@H]4[C@H](C)CC[C@@H]1[C@@]24OO3 [Compound 22]	–	1.12 ± 0.08	1.87 ± 0.12	1.48 ± 0.14	17.7 ± 15.1	2.11 ± 0.53	24.7 ± 2.79	616	2920	–	IC50 [1]: 45.9 ± 9.9 nM
C[C@H]1[C@H](N2CCN(S(=O)(=O)c3cccc(C(F)(F)F)c3)CC2)O[C@@H]2O[C@@]3(C)CC[C@H]4[C@H](C)CC[C@@H]1[C@@]24OO3 [Compound 16]	19.7 ± 9.9	5	3.4 ± 0.6	4.6 ± 0.2	0.4 to 0.7	1.13 ± 0.12	7.46 ± 1.07	431	> 178000	–	IC50 [5, 16]: 0.4 ± 0.3 nM
O=C1C(O)=C([C@H]2CC[C@H](c3ccc(Cl)cc3)CC2)C(=O)c2ccccc21 [Atovaquone]	–	–	–	–	–	–	–	–	–	–	Emax [11, 18]: 92.9%; IC50 [11, 17]: 2.52 ± 0.997 nM; IC50 [11, 19]: 3.23 nM; inhibition at 0.5 µM ([11]; Plasmodium berghei, Conc. 0.5 μM, read-out: P. berghei sporozoites Maximum inhibition %): 94.8 ± 2.76%; IC50 [11, 20]: 1.81 nM; IC50 at 72 h [12]: > 250 nM; EC50 at 72 h [12]: > 250 nM; HepG2 Cytotoxicity Bioluminescence Assay: Maximum measured (%) [13]: 16.9% and 8.57%; IC50 [13]: > 250 nM
COc1ccc(C[C@H](N)C(=O)N[C@H]2[C@@H](O)[C@H](n3cnc4c(N(C)C)ncnc43)O[C@@H]2CO)cc1 [Puromycin]	–	–	–	–	–	–	–	–	–	–	Emax [11, 18]: 107%; IC50 [11, 17]: 22.7 ± 4.53 nM; IC50 [11, 19]: 19.5 nM; inhibition at 5 µM ([11]; Plasmodium berghei, Conc. 5 μM, read-out: P. berghei sporozoites Maximum inhibition %): 110 ± 4.24%; IC50 [11, 20]: 25.9 nM; IC50 at 72 h [12]: 114 nM; EC50 at 72 h [12]: 117 nM; HepG2 Cytotoxicity Bioluminescence Assay: Maximum measured (%) [13]: 102.0% and 105.0%; IC50 [13]: 120 nM
C[C@H]1[C@H](N2CCN(S(=O)(=O)c3ccc(F)cc3)CC2)O[C@@H]2O[C@@]3(C)CC[C@H]4[C@H](C)CC[C@@H]1[C@@]24OO3 [Compound 19]	12.1 ± 4.5	4.2 ± 0.1	3.4 ± 0.4	4.8 ± 0.5	0.7 ± 0.5	1.65 ± 0.04	9.8 ± 0.4	558	> 196000	–	–
